The subject of this series is rat chronic carcinogenicity bioassay, TD50. The series can be described thus: DSSTox (CPDBAS) Carcinogenic Potency Database Summary Rat Bioassay Results. Particulars: for Potency: active compounds read low; for outcome: TD50_Rat_Note: no positive results. Summed up: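 Chronic long-term rat cancer bioassays from literature and NCI/NTP, taking the most positive result per sex. TD50 in mmol converted to a 1–100 Activity Score from log10(1/TD50). Mixtures lacking TD50 scored 50.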

Setting [1] is: TargetSites_Rat_Female: no positive results.
Setting [2] is: TD50_Rat_Note: TD50 is harmonic mean of more than one positive test, TargetSites_Rat_Female: liver.
The mark [3] stands for this setting: TD50_Rat_Note: TD50 is harmonic mean of more than one positive test, TargetSites_Rat_Female: stomach.

This note sets out measurements from PubChem BioAssay AID1208 (EPA DSSTox, 2008).

Active and inactive are the calls of the source.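 The calls were made as follows: active = at least one rat sex group has a carcinogenic potency value and tumor site recorded; inconclusive = only rat studies were judged inadequate by the national testing program; inactive = no potency or tumor site, with negative rat experiments.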

Consider `O=c1ccc2ccccc2o1`, for which, under “TD50_Rat_Note: TD50 is harmonic mean of more than one positive test, greater than ten-fold variation among TD50 values for positive res, TargetSites_Rat_Female: liver”, the Potency was 39.2 mg/kg/day.

For the compound `CCC(CC)[N+](=O)[O-]`, the Potency was 2.37 mg/kg/day.

Take `O=P(O)(OCC(Br)CBr)OCC(Br)CBr` (stereo not drawn): the Potency (TD50_Rat_Note: TD50 is harmonic mean of more than one positive test, TargetSites_Rat_Female: esophagus, liver, small intestine, stomach) is 32 mg/kg/day.

Turning to `Nc1nc(N)nc(-c2ccccc2)n1`, the outcome was “inactive; no positive results”.

With `CCN(Cc1cccc(S(=O)(=O)O)c1)c1ccc(C(=C2C=CC(=[N+](CC)Cc3cccc(S(=O)(=O)[O-])c3)C=C2)c2ccccc2)cc1`, the Potency (TD50_Rat_Note: TD50 is harmonic mean of more than one positive test, TargetSites_Rat_Female: liver, TargetSites_Rat_BothSexes: hematopoietic system) is 6060 mg/kg/day.

Take `Cc1ccc(/C(=C\CN2CCCC2)c2ccccn2)cc1`: the outcome under setting [1] is “inactive; no positive results”.

In the case of `Nc1nnc(-c2ccc([N+](=O)[O-])o2)o1`, the Potency (TargetSites_Rat_Female: kidney, lung, mammary gland, stomach) is 3.67 mg/kg/day.

As for `OCC(O)CCl` (stereo not drawn), the outcome under setting [1] was “inactive; no positive results”.

For the compound `C=CCN(CCO)N=O`, the Potency (TargetSites_Rat_Female: liver, nasal cavity) is 0.491 mg/kg/day.

`COc1ccc(C)cc1N`: the Potency (TD50_Rat_Note: TD50 is harmonic mean of more than one positive test, TargetSites_Rat_Female: nasal cavity, urinary bladder) is 98 mg/kg/day.

As to `C=C(C)C`, the Potency under setting [1] is 3550 mg/kg/day.

On to `C1CO1`, for which the Potency (TD50_Rat_Note: TD50 is harmonic mean of more than one positive test, greater than ten-fold variation among TD50 values for positive res, TargetSites_Rat_Female: nervous system, stomach) was 21.3 mg/kg/day.

In the case of `CC[N+](=O)[O-]`, under setting [1], the outcome was “inactive; no positive results”.

Take `Nc1ccc(N)c(Cl)c1`: the outcome under setting [1] was “inactive; no positive results”.

On to `C=C(Cl)Cl`, for which the outcome under setting [1] is “inactive; no positive results”.

Consider `Cc1cccc(C)c1NC1=NCCCS1`, for which the outcome is “inactive; no positive results”.

Take `Cn1cnc2nc(N)[nH]c(=O)c21`: the outcome (TargetSites_Rat_BothSexes: no positive results) was inactive.

Regarding `C=CC(OCC)OCC`, the outcome under setting [1] is “inactive; no positive results”.

As to `CN(C)CCOC(c1ccccc1)c1ccccc1`, the outcome under setting [1] is “inactive; no positive results”.

For the compound `CC(C)=NO`, the Potency under setting [1] was 12.1 mg/kg/day.

Consider `COc1ccc(OC)c(/C=C/c2ccc(N)cc2)c1`, for which the Potency was 0.721 mg/kg/day.

`C=CC(=C)C`: under “TD50_Rat_Note: TD50 is harmonic mean of more than one positive test, TargetSites_Rat_Female: mammary gland”, the Potency was 313 mg/kg/day.

With `COP(=S)(OC)Oc1ccc(SC)c(C)c1`, under setting [1], the outcome was “inactive; no positive results”.

Turning to `NC(=S)NNC=O`, the result under setting [1] was inactive.

As to `CCCN(N=O)C(=N)N[N+](=O)[O-]`, where the note is “TD50_Rat_Note: TD50 is harmonic mean of more than one positive test”, the Potency was 1.31 mg/kg/day.

For `C=CC(=C)Cl`, the Potency (TD50_Rat_Note: TD50 is harmonic mean of more than one positive test, TargetSites_Rat_Female: kidney, mammary gland, oral cavity, thyroid gland) is 12.5 mg/kg/day. The outcome under setting [1] is “inactive; no positive results”.

Take `NC1CCCCC1`: the outcome under setting [1] was “inactive; no positive results”.

`c1ccncc1`: the Potency under setting [1] is 67.3 mg/kg/day.

Consider `CCCCCCCCCCCCC(=O)COC1=C(O)C(=O)O[C@@H]1[C@@H](O)CO`, for which the outcome under setting [1] was inactive.

Consider `CCCCCCCCCC[N+](C)(C)[O-]`, for which the outcome under setting [1] was “inactive; no positive results”.

Regarding `CC1=C(C(=O)OCCN(Cc2ccccc2)c2ccccc2)C(c2cccc([N+](=O)[O-])c2)C(P2(=O)OCC(C)(C)CO2)=C(C)N1` (stereo not drawn), under setting [1], the outcome is “inactive; no positive results”.

With `Nc1ccc(N(CCO)CCO)cc1`, the outcome under setting [1] is “inactive; no positive results”.

Consider `CC(Cl)Cl`, for which the outcome under setting [1] was “inactive; no positive results”.

On to `O=S1(=O)N=C(O)c2ccccc21`, for which the outcome is “inactive; no positive results”.

On to `[C-]1=CC=CC1.[C-]1=CC=CC1.[Cl-].[Cl-].[Ti+4]`, for which the outcome under setting [1] was “inactive; no positive results”.

As to `ClC1(Cl)C2(Cl)C3C4(Cl)C1(Cl)C1(Cl)C4(Cl)C(Cl)(Cl)C3(Cl)C21Cl` (stereo not drawn), the Potency was 1.46 mg/kg/day.

Take `OC[P+](CO)(CO)CO`: the outcome under setting [1] is “inactive; no positive results”.

For `OCl`, the outcome under setting [1] was “inactive; no positive results”.

Take `Cc1csc(NNC=O)n1`: the Potency (TargetSites_Rat_Female: mammary gland) was 14.4 mg/kg/day.

On to `COc1ccc(C(=O)/C(Br)=C\C(=O)O)cc1`, for which the Potency (TD50_Rat_Note: positive test results only by intraperitoneal or intravenous injection, TD50 is harmonic mean of more than one positive, TargetSites_Rat_Female: mammary gland) was 2.77 mg/kg/day.

Consider `O=NN1CCCC1c1ccc[n+]([O-])c1` (stereo not drawn), for which the Potency (TD50_Rat_Note: TD50 is harmonic mean of more than one positive test, TargetSites_Rat_Female: esophagus, nasal cavity) was 0.876 mg/kg/day.

On to `NS(=O)(=O)c1cc(C(=O)O)c(NCc2ccco2)cc1Cl`, for which the outcome under setting [1] is “inactive; no positive results”.

In the case of `Nc1nc(-c2ccc([N+](=O)[O-])o2)cs1`, the Potency (TargetSites_Rat_Female: stomach, urinary bladder) is 5.85 mg/kg/day.

For the compound `CNCc1ccc(CSCCNC(=NCC(O)c2ccc(O)cc2)NS(C)(=O)=O)o1` (stereo not drawn), the outcome under setting [1] is “inactive; no positive results”.

Take `CC(N)Cc1ccccc1` (stereo not drawn): the outcome under setting [1] is “inactive; no positive results”.

For the compound `O=C1C(O)N=C(c2ccccc2F)c2cc(Cl)ccc2N1CCO` (stereo not drawn), under setting [1], the outcome is “inactive; no positive results”.

Take `COc1ccc(CN(CCN(C)C)c2ccccn2)cc1`: the Potency under setting [2] was 280 mg/kg/day.

For `Nc1ccc(S(=O)(=O)c2ccc(N)cc2)cc1`, under setting [1], the Potency is 22.4 mg/kg/day.

Regarding `C=CCc1ccc(O)c(OC)c1`, the outcome under setting [1] was “inactive; no positive results”.

In the case of `CN(C)/N=N/c1nc[nH]c1C(N)=O`, the Potency (TargetSites_Rat_Female: hematopoietic system, mammary gland, uterus) was 0.71 mg/kg/day.

For the compound `CC(O)CNCC(C)O` (stereo not drawn), the outcome is “inactive; no positive results”.

Consider `CC(=O)C(N=Nc1ccc(-c2ccc(N=NC(C(C)=O)C(=O)Nc3ccccc3)c(Cl)c2)cc1Cl)C(=O)Nc1ccccc1` (stereo not drawn), for which, under setting [1], the outcome was “inactive; no positive results”.

Take `Cc1ccc(Cc2cnc(NCCSCc3ccc(CN(C)C)o3)[nH]c2=O)cn1`: under setting [3], the Potency was 3360 mg/kg/day.

On to `CCC[CH2][Sn]([CH2]CCC)([O]C(C)=O)[O]C(C)=O`, for which the outcome (TargetSites_Rat_Female: NTP bioassay inadequate) was “inactive; no positive results”.

With `O=C(C1CCCCC1)N1CC(=O)N2CCc3ccccc3C2C1` (stereo not drawn), the outcome under setting [1] was “inactive; no positive results”.

For `C[C@]12CC[C@H]3C(=CCc4cc(OS(=O)(=O)O)ccc43)[C@@H]1CCC2=O`, the outcome under setting [1] is “inactive; no positive results”.

As to `Brc1c(Br)c(Br)c(Oc2c(Br)c(Br)c(Br)c(Br)c2Br)c(Br)c1Br`, the Potency under setting [2] is 3340 mg/kg/day. Under setting [1], the outcome was “inactive; no positive results”.

Take `CCO`: the Potency under setting [1] was 9110 mg/kg/day.

Regarding `NC(=S)NNC(N)=S`, the outcome under setting [1] is “inactive; no positive results”.

Take `O=S1(=O)CCCO1`: for the setting “TD50_Rat_Note: TD50 is harmonic mean of more than one positive test, TargetSites_Rat_Female: hematopoietic system, mammary gland, nervous system, small intestine”, the Potency was 3.84 mg/kg/day.

In the case of `CCCCCCCCCCCCCCCC(=O)OC/C=C(C)/C=C/C=C(C)/C=C/C1=C(C)CCCC1(C)C`, the outcome is “inactive; no positive results”.

For the compound `O=C1c2ccccc2C(=O)c2c(O)c(O)cc(O)c21`, the Potency was 678 mg/kg/day.

Turning to `CN(N=O)c1ccccc1`, the Potency (TD50_Rat_Note: TD50 is harmonic mean of more than one positive test, harmonic mean of TD50 includes a value for upper 99% confidence li, TargetSites_Rat_Female: esophagus) is 0.142 mg/kg/day.

As for `CN(C)c1ccc(N=Nc2ccccc2)cc1`, the Potency (TargetSites_Rat_Female: liver) is 3.31 mg/kg/day.

As to `CCCC[C@H](C)[C@@H](OC(=O)C[C@H](CC(=O)O)C(=O)O)[C@@H](C[C@H](C)C[C@@H](O)CCCC[C@@H](O)C[C@H](O)[C@H](C)N)OC(=O)C[C@H](CC(=O)O)C(=O)O`, the Potency (TD50_Rat_Note: TD50 is harmonic mean of more than one positive test, TargetSites_Rat_Female: no positive results) is 1.5 mg/kg/day.

For the compound `O=C(Nc1ccc([N+](=O)[O-])cc1Cl)c1cc(Cl)ccc1O`, the outcome under setting [1] is “inactive; no positive results”.

Consider `O=[N+]([O-])c1ccc(Cl)cc1`, for which the outcome is “inactive; no positive results”.

As for `C=C(C)CCl`, the Potency under setting [3] is 113 mg/kg/day.

For `CCOc1ccc(NC(C)=O)cc1`, for the setting “TD50_Rat_Note: TD50 is harmonic mean of more than one positive test, TargetSites_Rat_Female: ear Zymbals gland, mammary gland, nasal cavity, urinary bladder”, the Potency is 1250 mg/kg/day.

With `CCCCC(CC)COC(=O)c1ccccc1C(=O)OCC(CC)CCCC` (stereo not drawn), under setting [2], the Potency was 716 mg/kg/day.

Turning to `c1ccc2c(c1)Oc1ccccc1O2`, under setting [1], the outcome was “inactive; no positive results”.

On to `O=CNNc1nc(-c2ccco2)cs1`, for which the result under setting [1] was inactive.

With `Cn1c(=O)c2[nH]cnc2n(C)c1=O`, the outcome under setting [1] is “inactive; no positive results”.

`CCN(CC)c1cc2oc3cc(=[N+](CC)CC)c(C)cc-3c(-c3ccc(S(=O)(=O)O)cc3S(=O)(=O)[O-])c2cc1C`: the outcome under setting [1] is “inactive; no positive results”.

For the compound `O=C1CCC(=O)O1`, the outcome under setting [1] is “inactive; no positive results”.

Turning to `O=S(=O)(O)c1ccc(N=Nc2c(O)ccc3cc(S(=O)(=O)O)ccc23)cc1`, the outcome under setting [1] is “inactive; no positive results”.
